Data from patent US6344468B1, “Substituted isoindolones and their use as cyclic GMP modulators in medicaments” (Aventis Pharma Deutschland GmbH, priority 1998, dated 2002).

target: T1, soluble guanylate cyclase (sGC) (Bos taurus, UniProt P16068+P19687); test: Activation of the soluble guanylate cyclase (cGMP enzyme immunoassay); format: biochemical; conditions: sGC isolated from bovine lung; concentration 50 μM; n-fold stimulation of basal enzyme activity = [cGMP]test substance/[cGMP]control
T1 construct: The sGC which was employed had been isolated from bovine lung; from tissue; host or cells: bovine lung
T1 sequence (P16068 1-619): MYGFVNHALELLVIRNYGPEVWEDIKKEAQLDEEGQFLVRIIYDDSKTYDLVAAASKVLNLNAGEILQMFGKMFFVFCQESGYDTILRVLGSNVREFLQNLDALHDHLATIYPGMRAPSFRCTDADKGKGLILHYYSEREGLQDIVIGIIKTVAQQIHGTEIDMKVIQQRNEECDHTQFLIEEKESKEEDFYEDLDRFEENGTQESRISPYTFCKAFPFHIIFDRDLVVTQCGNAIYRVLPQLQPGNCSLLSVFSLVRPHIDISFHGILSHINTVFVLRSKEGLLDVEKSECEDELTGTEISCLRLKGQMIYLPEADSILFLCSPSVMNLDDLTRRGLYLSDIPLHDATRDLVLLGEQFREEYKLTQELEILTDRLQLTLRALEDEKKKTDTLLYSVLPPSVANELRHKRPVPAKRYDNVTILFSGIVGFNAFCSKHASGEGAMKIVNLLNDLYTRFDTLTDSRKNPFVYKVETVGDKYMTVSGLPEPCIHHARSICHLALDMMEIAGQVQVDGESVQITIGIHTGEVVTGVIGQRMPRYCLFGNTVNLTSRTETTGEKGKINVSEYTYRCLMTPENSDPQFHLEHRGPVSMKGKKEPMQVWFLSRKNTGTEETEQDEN
T1 sequence (P19687 1-691): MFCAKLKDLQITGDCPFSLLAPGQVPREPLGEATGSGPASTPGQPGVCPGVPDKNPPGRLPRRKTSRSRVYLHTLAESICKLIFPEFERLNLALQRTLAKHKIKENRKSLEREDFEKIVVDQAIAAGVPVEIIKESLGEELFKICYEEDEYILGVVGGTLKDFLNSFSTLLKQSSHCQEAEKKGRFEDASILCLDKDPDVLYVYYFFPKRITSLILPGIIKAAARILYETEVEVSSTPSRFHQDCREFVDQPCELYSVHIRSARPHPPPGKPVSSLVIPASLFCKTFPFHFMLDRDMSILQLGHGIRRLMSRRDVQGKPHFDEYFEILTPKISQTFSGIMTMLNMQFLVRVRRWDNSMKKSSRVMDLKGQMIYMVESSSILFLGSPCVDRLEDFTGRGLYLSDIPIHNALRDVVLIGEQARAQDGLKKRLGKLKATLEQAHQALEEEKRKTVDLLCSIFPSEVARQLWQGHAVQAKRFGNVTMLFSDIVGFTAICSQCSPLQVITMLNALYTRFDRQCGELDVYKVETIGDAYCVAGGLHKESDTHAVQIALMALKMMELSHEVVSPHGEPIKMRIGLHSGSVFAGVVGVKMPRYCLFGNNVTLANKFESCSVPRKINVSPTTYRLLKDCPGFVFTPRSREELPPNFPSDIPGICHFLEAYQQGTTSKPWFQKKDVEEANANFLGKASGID
Procedure: The activation of the soluble guanylate cyclase (sGC), which catalyzes the conversion of guanosine triphosphate (GTP) into cyclic guanosine monophosphate (cGMP) and pyrophosphate, by the compounds according to the invention was quantified with the aid of an enzyme immunoassay (EIA) from Amersham. To this end, the substances to be tested were initially incubated with sGC in microtiter plates, and the amount of the cGMP formed was then determined.
The sGC which was employed had been isolated from bovine lung (see Methods in Enzymology, volume 195, p. 377). The test solutions (100 μl per well) contained 50 mM triethanolamine (TEA) buffer (pH 7.5), 3 mM MgCl2, 3 mM reduced glutathione (GSH), 0.1 mM GTP, 1 mM 3-isobutyl-1-methylxanthine (IBMX), suitably diluted enzyme solution and the substance to be tested or, in control experiments, the solvent. The substances to be tested were dissolved in dimethyl sulfoxide (DMSO) and the solution was diluted with DMSO/water, so that the final concentration of the substance to be tested in the test mixture was 50 μM. The DMSO concentration in the test mixture was 5% (v/v). The reaction was initiated by addition of the sGC. The reaction mixture was incubated at 37° C. for 15 to 20 minutes and the reaction was then stopped by ice-cooling and addition of the stop reagent (50 mM EDTA, pH 8.0). An aliquot of 50 μl was taken and used for determining the cGMP content using the acetylation protocol of the Amersham cGMP-EIA kit. The absorption of the samples was measured at 450 nm (reference wavelength 620 nm) in a microtiter plate reader. The cGMP concentration was determined using a standard curve which was obtained under the same test conditions. The activation of sGC by a test substance is reported as the n-fold stimulation of the basal enzyme activity which was found in the control experiments (using solvent instead of test substance) (calculated using the formula
n-fold stimulation=[cGMP]test substance/[cGMP]control).

Q: `COc1cccc(CCN2C(=O)c3ccccc3C2(O)c2ccncc2)c1` (stereo not shown) [Example 29, 3-Hydroxy-2-(2-(3-methoxyphenyl)ethyl)-3-(4pyridyl)-2,3-dihydroisoindol-1-one] was tested. Which n-fold stimulation did it give?
A: The n-fold stimulation was 11.8-fold.

Q: `COc1cccc(CCN2C(=O)c3c(F)c(F)c(F)c(F)c3C2(O)c2ccc(F)cc2)c1` (stereo not shown) [Example 33, 4,5,6,7-Tetrafluoro-3-(4-fluorophenyl)-3-hydroxy-2-(2-(3-methoxyphenyl)-ethyl)-2,3-dihydroisoindol-1-one] was tested. Which n-fold stimulation did it give?
A: The n-fold stimulation was 9.5-fold.

Q: `OCc1ccc(-c2nn(Cc3ccccc3)c3ccccc23)o1` [A, 1-benzyl-3-(5-hydroxymethyl-2-furyl)-indazole, reference compound] was tested. Which n-fold stimulation did it give?
A: Its n-fold stimulation is 2-fold.

Q: `COc1cccc(CCN2C(=O)c3ccccc3C2(O)c2ccc(F)cc2)c1` (stereo not shown) [Example 17, 3-(4-Fluorophenyl)-3-hydroxy-2-(2-(3-methoxyphenyl)ethyl)-2,3-dihydro-isoindol-1-one] was tested. Which n-fold stimulation did it give?
A: The n-fold stimulation was 16-fold.
